Values joined by “and” are separate entries in the source; they are usually repeats but may differ in a detail not shown here. Identical values can stand only once. “Also recorded” adds a separate entry of the source. Like-named read-outs stand apart in the source and are kept apart here.
Key:
CT-DNA = experiment: Spectrophotometric DNA intercalation assay; type: binding, calf; conditions: for Changes in absorbance: bound to CT-DNA (18 µM), 1.5 h 37 °C, Tris-HCl pH 7.9; for % hypochromism / Δε: bound to CT-DNA, for CP-31398 first value (312 nm band); for red shift: wavelengths of maximum absorption, individual vs DNA-bound compound
Excerpt: The fused aromatic rings of the naphthalene moiety and halogen substituents in aniline may guarantee good intercalating properties[71],[72]. On the other hand, the intercalation of DNA may explain the high activity against both the wild-type and p53 mutants as was reported for a series of styrylquinolines. Binding to DNA causes the bases to mismatch or cleave, which results in the arrest of the cell cycle and apoptosis. The effectiveness of the p53 system is one of the most important factors in the response to therapy. We tested the intercalating properties of the selected compounds in a spectrophotometric assay on calf-thymus DNA. The absorption spectra of the tested compounds in the absence and presence of CT-DNA are presented in Figure S1 Supplementary Information and the spectral properties with doxorubicine and CP-31398 are summarized in Table 2.
For the DNA binding studies, Calf-thymus DNA (CT-DNA) was purchased from Sigma- Aldrich. The lyophilized CT-DNA was dissolved in 10 mM Tris-HCl, pH 7.9, mixed gently and left overnight at 4 °C. The purity of the CT-DNA solution was determined by measuring the ratio of UV absorbance at 260 and 280 nm. […] Then, the concentration of CT-DNA was determined from the absorbance at 260 nm using an extinction coefficient of 6600 M^−1cm^−1. The tested compounds including DOX and CP-31398 were dissolved to a concentration of 8.35 mM in DMSO, which was then used as the stock solution for preparing the various concentrations (25, 12.5, 6 and 3 µM) in 1 mL in 10 mM of Tris-HCl (pH 7.9). Afterwards, 18 µM CT-DNA was added to the prepared solutions, which were incubated for 1.5 h at 37 °C with occasional vortexing. The absorption spectra were measured using a Hitachi U-2900 spectrophotometer in the range of 200–500 nm. All absorption spectra were imported into OriginPro 8.0 and compared.

NHDF = experiment: Cytotoxicity (MTS, 72 h) against normal human fibroblasts; type: cell-based; conditions: for IC50: Homo sapiens, NHDF, MTS, 72 h incubation
HCT116^+/+ = experiment: Antiproliferative assay (MTS, 72 h) on HCT116 wild type; type: cell-based, human; conditions: for IC50: Homo sapiens, HCT-116
HCT116 cells = experiment: AO/EB staining apoptosis assay; type: cell-based, human; conditions: HCT116 p53^+/+ and p53^−/−, IC50 concentration
Method: Three compounds with a distinct activity were selected for further tests. […] The apoptosis of the cells that were treated with the active compounds was confirmed using the Acridine Orange (AO)/Ethidium Bromide (EB) staining test[70] (Fig. 5).
The dual acridine orange/ethidium bromide (AO/EB) staining method was used for the morphological analysis of apoptosis. The cells were seeded on coverslips at a density of 8·10^5 cells/slide and incubated at 37 °C for 48 h. Then, the medium was removed and solutions of 5 s, 5 u, 7 f and DOX at the IC50 concentration were added. After 24 h, the cells were washed with PBS, and then the cells were incubated in a staining solution (100 μg/mL AO and 100 μg/mL EB in PBS) (Sigma-Aldrich, St. Louis, MO, USA) for 3–4 min. After staining, the coverslips were washed with PBS and fixed with 3.7% paraformaldehyde for 15 min. Observations and photography were performed with a Nikon Eclipse Ni-U fluorescent microscope equipped with the sets of filters for AO and EB (excitation filter 450–490, barrier filter BA520).

HCT116^−/− = experiment: Antiproliferative assay (MTS, 72 h) on HCT116 with p53 deletion; type: cell-based, human; conditions: for IC50: Homo sapiens, HCT-116, MTS, 72 h incubation
[1] = MTS, 72 h incubation, read-out: Activity IC50 HCT116^+/+

| SMILES | Changes in absorbance (CT-DNA) | % hypochromism (CT-DNA) | Δε (CT-DNA) | red shift (CT-DNA) | IC50 (NHDF) | selectivity for the wild type over p53 null cells (HCT116^+/+) | IC50 (HCT116^+/+; [1]) | apoptosis (AO/EB staining) (HCT116 cells) | IC50 (HCT116^−/−) | selectivity index (NHDF; cytotoxicity against the normal cell line vs HCT116) | selectivity towards the p53 null cells (HCT116 p53^−/− vs wild type) (HCT116^−/−) | IC50 (HCT116^+/+; submicromolar activity level, read-out: IC50 for the HCT116 wild type) |
| --- | --- | --- | --- | --- | --- | --- | --- | --- | --- | --- | --- | --- |
| O=C(Nc1cc(C(F)(F)F)cc(C(F)(F)F)c1Cl)c1ccc2ccccc2c1O [5u] | hypochromism | 14% | 922.2 M⁻¹ cm⁻¹ | small red-shift and 2 nm | 16300 ± 1280 nM | roughly four times more active against the wild type | 720 ± 280 nM | early and late apoptotic cells | 2720 ± 630 nM |  |  |  |
| O=C(Nc1ccc(F)c(Cl)c1)c1ccc2ccccc2c1O [5s] | hypochromism | 6.5% | 255.6 M⁻¹ cm⁻¹ | 2 nm | > 25000 nM |  | 6870 ± 2480 nM | early and late apoptotic cells | 830 ± 310 nM | > 30 | more than eight times more toxic |  |
| O=C(Nc1cc(C(F)(F)F)cc(C(F)(F)F)c1)c1ccc2ccccc2c1O [7f] | rather low hypochromic effect; also recorded: hypochromism | 5.7% | 244.4 M⁻¹ cm⁻¹ | no wavelength shift and 0 nm | 3550 ± 760 nM |  | 460 ± 50 nM | early and late apoptotic cells | 350 ± 80 nM |  |  | 464 nM |
